From US20020022022A1, “Inhibition of cell proliferation and matrix synthesis by antioxidants and NAD(P)H oxidase inhibitors” (priority 2000, published 2002)

Key:
[1] = test system: superoxide anion (—O2^−) generation in coronary media; test: —O2^− production in uninjured coronary media (SOD-inhibitable NBT reduction); assay type: cell-based, pigs; conditions: DETCA 10 mM
Description: (§1) The production of —O2^− is measured by superoxide dismutase- (SOD) or tiron-inhibitable conversion of nitroblue tetrazolium (NBT) to formazan. (20,21)
—O2^− production in coronary arteries: Coronary arteries are dissected free from adipose tissue and myocardium and then cut into ˜5 mm rings and placed in 24-well plates. Tissues are balanced in phenol-free DMEM at 37° C. in a CO2 incubator for 30 minutes with or without addition of SOD (SOD, 1000 unit/ml) or tiron (10 mM), both scavengers of —O2^− Freshly made NBT (100 mg/L in phenol-free DMEM) is added to the tissues with a gentle rocking for 3 hours. The reaction is terminated by addition of equal volume of 0.5N HCl, and tissues are rinsed twice with cold PBS. To extract formazan, tissues are pulverized in liquid nitrogen and dissolved in 100% pyridine at 80° C. for 30 minutes. After centrifugation, light absorbance is read in supernatants at 540 nm. The NBT reduction to formazan is calculated using the following formula: NBT reduction=A×V/(T×E×L) (A: absorbance; V: volume of solubilizing solution; T: time of incubation with NBT (minutes); E: extinction coefficient=0.72 mmol.mm; L: length of light travel through the solution, 10 mm). Either SOD- or tiron-inhibitable NBT reduction is calculated as measures of —O2^− production (pmol/min/mg wet weight). […]

[2] = test system: superoxide anion (—O2^−) generation in coronary adventitia; test: —O2^− production in uninjured coronary adventitia (SOD-inhibitable NBT reduction); assay type: cell-based, pigs; conditions: uninjured coronary adventitia; DETCA 10 mM
Description: as §1
—O2^− production in coronary arteries: Coronary arteries are dissected free from adipose tissue and myocardium and then cut into ˜5 mm rings and placed in 24-well plates. Tissues are balanced in phenol-free DMEM at 37° C. in a CO2 incubator for 30 minutes with or without addition of SOD (SOD, 1000 unit/ml) or tiron (10 mM), both scavengers of —O2^− Freshly made NBT (100 mg/L in phenol-free DMEM) is added to the tissues with a gentle rocking for 3 hours. The reaction is terminated by addition of equal volume of 0.5N HCl, and tissues are rinsed twice with cold PBS. To extract formazan, tissues are pulverized in liquid nitrogen and dissolved in 100% pyridine at 80° C. for 30 minutes. After centrifugation, light absorbance is read in supernatants at 540 nm. The NBT reduction to formazan is calculated using the following formula: NBT reduction=A×V/(T×E×L) (A: absorbance; V: volume of solubilizing solution; T: time of incubation with NBT (minutes); E: extinction coefficient=0.72 mmol.mm; L: length of light travel through the solution, 10 mm). Either SOD- or tiron-inhibitable NBT reduction is calculated as measures of —O2^− production (pmol/min/mg wet weight). To determine the pathways mediating —O2^− production, several inhibitors are used in the experiments, including diphenyleneiodonium (DPI, 100 μM), rotenone (ROT, 50 μM), oxypurinol (OXY, 300 μM), N^ω-nitro-L-arginine methyl ester (L-NAME, 1 mM), and diethyldithio-carbamic acid (DETCA, 10 mM). The n value represents the number of vascular rings obtained from at least 3 animals per experimental condition.

[3] = cited from earlier work

For `CCN(CC)C(=S)S` [DETCA, diethyldithio-carbamic acid], which “—O2^− generation in media with SOD inhibitor” value [1] is on record?
Its value is 36.3 ± 8.2 pmol/mg/min.

What about the “—O2^− generation in adventitia with SOD inhibitor” value [2] of the same compound?
Its value is 19.6 ± 2.5 pmol/mg/min.

For `CCOC(=O)[C@H](CCc1ccccc1)N[C@@H](C)C(=O)N1[C@H](C(=O)O)C[C@@H]2CCC[C@@H]21` [ramipril], which cardiovascular mortality ([3]; chronic administration, HOPE trial) is on record?
The cardiovascular mortality was “reduction”.

Which “clinical results with antioxidant” value ([3]; clinical) does the source give for vitamin E here?
Its value is “largely negative”.
